Measured values as given in patent US9701987B2, “Fermentation process for the production and control of pyruvate-derived products” (priority 2014, dated 2017).
Like-named read-outs stand apart in the source and are kept apart here.

What was measured:
[1] = system: Clostridium autoethanogenum
Text: A fermentation was started using the general fermentation process with gas and agitation were increased to minimize acetate and maximize ethanol production. Dilution rate and bacterial dilution rate were adjusted by day 4.0 to 2.0 day-^1 and 1.2 day-1, respectively. These values were maintained for the remainder of the fermentation.
On day 14.1 the concentration of B1 in media was decreased to reduce the specific B1 feed rate with all other operational parameters being kept constant.
It has been reported in the art that the limiting concentration of B1 for growth and acetate production is 6.5 μg/g cell produced.

[2] = reported in the art; cited from earlier work
[3] = system: Clostridium autoethanogenum; experiment: Example 1: fermentation with vitamin B5 concentration increased during the run, effect on 2,3-BDO production; type: cell-based
Description: This experiment was carried out according to the general fermentation process described above. […] Dilution rate and bacterial dilution rate were adjusted so that by day 5.0 these were 1.8 day^−1 and 0.85 day^−1, respectively.
On day 8.1 the concentration of vitamin B5 in media was increased 10 fold with all other operational parameters remaining the same. During this time the biomass production rate dropped slightly so accordingly the vitamin B5 feed rate was increased just over tenfold to 2180 μg/g-cell produced. Following the increase in the vitamin B5 concentration, the specific 2,3-BDO production rate and concentration increased with other parameters remaining stable.
This is a surprising result as it is only the specific 2,3-BDO production rate and the concentration of 2,3-BDO that increases while the production rate of other metabolites, e.g. ethanol and biomass remains the same.

[4] = system: Clostridium autoethanogenum; experiment: Example 3: fermentation with excess vitamin B5 from the start, effect on 2,3-BDO production; type: cell-based
Description: The example above can be compared to results when excess B5 vitamin is present in the fermentation media throughout the fermentation. […] In this case the 2,3-BDO concentration reached 9 g/L with an ethanol:2,3-BDO ratio of 2:1 (FIG. 2), and a CO uptake of 9.4 mol/L/day (FIG. 3). The feed rate of B5 vitamin throughout the fermentation was >2000 μg/g-cell produced. During day 6.0 to 7.0 as the biomass and 2,3-BDO production flattened out the feed rate of B5 vitamin was 2011 μg/g-cell produced. The specific 2,3-BDO production rate was 1.2 g/day per g-biomass, the specific ethanol production rate was 2.4 g/day per g-biomass.

Clostridium ljungdahlii = details: WO 2002/08438; cited from earlier work
[5] = system: Clostridium autoethanogenum; experiment: Example 5: fermentation with vitamin B7 concentration increased then reduced, effect on 2,3-BDO production; type: cell-based
Description: In this example the impact of B7 on the production of 2,3-BDO was tested using a fermentation grown according to the general fermentation process. […] Dilution rate and bacterial dilution rate were adjusted so that by day 8.0 these were 1.8 day^−1 and 0.75 day^−1 respectively. […] The results achieved at that time are summarised below;
On day 8.69 the concentration of B7 in media was increased 10 fold with all other operational parameters being kept constant. During this time the biomass production rate remained stable so the B7 feed rate was increased over tenfold to 980 μg/g cell produced. Following the increase in the B7 feed the specific 2,3-BDO production rate and the concentration of 2,3-BDO increased. The data obtained from days 13-14 are summarised below;
As the 2,3-BDO concentration was reaching a peak (day 14.04) the B7 in the media was reduced 10 fold such that the specific B7 feed rate was reduced back to 90 μg/g cell produced.
This is a surprising result as it is the specific 2,3-BDO production rate and the concentration of 2,3-BDO that increases rather than any other metabolite and or biomass.

[6] = vitamin B1 feed rate 303 μg/g cell produced, day 10.0-14.0
[7] = vitamin B1 feed rate decreased to 61 μg/g cell produced
[8] = vitamin B5 feed rate 198 μg/g-cell produced, day 6.0-8.0
[9] = vitamin B5 feed rate 2180 μg/g cell produced
[10] = B5 vitamin feed rate 2011 μg/g-cell produced, day 6.0 to 7.0
[11] = B5 vitamin feed rate >2000 μg/g-cell produced throughout the fermentation
[12] = vitamin B7 feed rate 90 μg/g cell produced, before increase
[13] = vitamin B7 feed rate 980 μg/g cell produced, days 13-14
[14] = vitamin B7 reduced back to 90 μg/g cell produced (after day 14.04)

## Cc1ncc(C[n+]2csc(CCO)c2C)c(N)n1.Cl.[Cl-] [vitamin B1, Thiamine hydrocloride]
[1]; B1 feed rate 303 to 61 μg/g cell produced, CO uptake constant
  effect of decreasing the B1 concentration on ethanol production: unaffected
[1]; [6]
  2,3-BDO concentration: 3.4 g/L
  Biomass: 5.79 g/L
  CO uptake: 8.0 mol/L/day
  Ethanol concentration: 16.05 g/L
  Specific 2,3-BDO production rate: 1.17 g 2,3-BDO/g biomass/day
  Specific Ethanol production rate: 5.54 g ethanol/g biomass/day
[1]; [7]
  2,3-BDO titre: 1.6 g/L
  Biomass: 6.75 g/L
  CO uptake: 8.0 mol/L/day
  Ethanol concentration: 18.23 g/L
  Specific 2,3-BDO production rate: 0.47 g 2,3-BDO/g biomass/day
  Specific Ethanol production rate: 5.4 g ethanol/g biomass/day
[2]
  limiting concentration of B1 for growth and acetate production: 6.5 μg/g cell produced

## CC(C)(CO)[C@@H](O)C(=O)NCCC(=O)O [vitamin B5, Pantothenic acid]
[3]; [8]
  2,3-BDO concentration: 4.8 g/L
  Acetate concentration: 7.75 g/L
  CO uptake: 8.4 mol/L/day
  Ethanol concentration: 18.69 g/L
  Specific 2,3-BDO production rate: 0.81 g 2,3-BDO/g-biomass/day
  Specific Ethanol production rate: 3.17 g ethanol/g-biomass/day
[3]; vitamin B5 feed rate 198 μg/g-cell produced, stable period day 6.0-8.0
  Biomass: 10.62 g/L
[3]; [9]
  2,3-BDO concentration: 7.0 g/L
  CO uptake: 8.0 mol/L/day
  Ethanol concentration: 19.49 g/L
  Specific 2,3-BDO production rate: 1.32 g 2,3-BDO/g biomass/day
  Specific Ethanol production rate: 3.3 g ethanol/g biomass/day
[3]; vitamin B5 feed rate 2180 μg/g cell produced, after 10 fold increase on day 8.1
  Biomass: 10.4 g/L
[4]; [10]
  Specific 2,3-BDO production rate: 1.2 g/day per g-biomass
  Specific Ethanol production rate: 2.4 g/day per g-biomass
[4]; [11]
  2,3-BDO concentration: 9 g/L
  CO uptake: 9.4 mol/L/day
Clostridium ljungdahlii
  vitamin B5 required for growth: 50 μg/g biomass produced

## O=C(O)CCCC[C@@H]1SC[C@@H]2NC(=O)N[C@@H]21 [vitamin B7, Biotin]
[5]; B7 feed rate 90 to 980 μg/g cell produced
  impact of increasing B7 on the specific ethanol production rate: does not impact
[5]; [12]
  2,3-BDO concentration: 4.94 g/L
  Acetate concentration: 8.13 g/L
  Biomass: 9.42 g/L
  CO uptake: 8.0 mol/L/day
  Ethanol concentration: 15.63 g/L
  Specific 2,3-BDO production rate: 1.19 g 2,3-BDO/g biomass/day
  Specific Ethanol production rate: 3.78 g ethanol/g biomass/day
[5]; [13]
  2,3-BDO concentration: 7.34 g/L
  Biomass: 9.23 g/L
  CO uptake: 7.6 mol/L/day
  Ethanol concentration: 14.92 g/L
  Specific 2,3-BDO production rate: 1.97 g 2,3-BDO/g biomass/day
  Specific Ethanol production rate: 3.85 g ethanol/g biomass/day
[5]; [14]
  2,3-BDO concentration: 4.76 g/L
  Biomass: 10.53 g/L
  CO uptake: 7.6 mol/L/day
  Ethanol concentration: 15.70 g/L
  Specific 2,3-BDO production rate: 1.1 g 2,3-BDO/g biomass/day
  Specific Ethanol production rate: 3.59 g ethanol/g biomass/day
